How the values were obtained:
[1] = tested on: neuromuscular junctions (nerve and muscle co-cultures); assay: Nerve and muscle co-cultures, stronger beta-amyloid (10 μM) induced damage of neuromuscular junctions; type: cell-based; settings: longer incubation, NRG1 30 nM and/or AdoCbl 1 nM, FIG. 5
Experimental: Nerve and muscle co-cultures were grown in vitro until neuromuscular junctions were mature. Damage was induced using beta-amyloid (Ab) incubation (10 μM) and riluzole (5 μM) was used as a positive control for preserving neuromuscular junctions from Ab-induced damage. The effect of neuregulin-1 (NRG1; 30 nM) and/or adenosylcobalamin (AdoCbl; 1 nM) on Ab-induced damage was evaluated by measuring the neuromuscular junction (NMJ) size or number. 6 wells per group were analysed and compared to a control condition (CTL) without Ab-induced damage.

[2] = tested on: Tibialis anterior muscle fibers; assay: Effect of vitamin B12 on skeletal muscle in vivo: tibialis anterior fiber size in aged rats; set-up: species or system rat; settings: 1 mg/kg s.c. 3 times per week for 5 months, type 2A fibers, FIG. 6
Experimental: Pre-sarcopenic rats aged 16 months were treated for 5 months with either adenosylcobalamin (AdoCbl, C0884, Sigma aldrich), methylcobalamin (MeCbl, M9756, Sigma aldrich) or saline. AdoCbl and MeCbl were injected sub-cutaneously at 1 mg/kg body weight 3 time per week. Tibialis Anterior (TA) was then dissected out and frozen for further analyses. For histology, TA was cryo-sectioned at 10 μm and stained with laminin (L9393, Sigma aldrich) to delineate fibers. Specific fiber types 1, 2A and 2B were immunolabeled subsequently with appropriate antibodies (clones BADS, BFF3, and SC71 respectively, DSHB). Images were acquired using a slide scanner (VS-120, Olympus) and analyzed using an in-house MetaXpress journal (Molecular Devices, Sunnyvale, USA). Images from old animals were compared to a group of adult healthy rats (8 months at start of experiment) injected with saline control. For gene expression analysis, total RNA was extracted using the miRNeasy Mini Kit (Qiagen) according to the manufacturer's instruction and RNA quality was checked using the Standard Sensitivity RNA Analysis Kit on a Fragment Analyzer (Advanced Analytical Technologies). Samples were then hybridized on Affymetrix Rat 230 PM 96-Array following standard Affymetrix protocol, based on the Eberwine T7 procedure. […]

[3] = tested on: neuromuscular junctions (nerve and muscle co-cultures); assay: Nerve and muscle co-cultures, beta-amyloid (2.5 μM) induced damage of neuromuscular junctions; type: cell-based; settings: for protection from Ab-induced damage (neuromuscular junction size, number and neurite network): 1 or 100 nM, FIG. 4
Experimental: Nerve and muscle co-cultures were grown in vitro until neuromuscular junctions were mature. Damage was induced using beta-amyloid (Ab) incubation (2.5 μM) and riluzole (5 μM) was used as a positive control for preserving neuromuscular junctions from Ab-induced damage.
The effect of neuregulin-1 (NRG1; various concentrations, as specified in FIG. 2) on Ab-induced damage was evaluated by measuring the neuromuscular junction (NMJ) size. 6 wells per group were analysed and compared to a control condition. The uninjured control condition is the neuromuscular junction size without Ab treatment. All other conditions are to be compared to the Ab treatment alone which represents the reference value for damaged neuromuscular junction size.
Nerve and muscle co-cultures were grown in vitro until neuromuscular junctions were mature. Damage was induced using beta-amyloid (Ab) incubation (2.5 μM) and riluzole (5 μM) was used as a positive control for preserving neuromuscular junctions from Ab-induced damage. The effect of methylcobalamin (MeCbl; 1 or 100 nM) and adenosylcobalamin (AdenoCbl; 1 or 100 nM) on Ab-induced damage was evaluated by measuring the neuromuscular junction (NMJ) number and size, and the neurite network. 6 wells per group were analysed and compared to a control condition (CTL). The uninjured control condition is the neuromuscular junction size without Ab treatment. All other conditions are to be compared to the Ab treatment alone which represents the reference value for damaged neuromuscular junction size.

[4] = tested on: HSMM human myoblasts; assay: TNFa-induced myotube atrophy in HSMM human myoblasts (fusion index); type: cell-based; settings: TNFa 40 ng/ml for 4 days; 1 nM; FIG. 7
Experimental: HSMM human myoblasts were grown in vitro and induced to differentiate into mature myotubes. Myotube atrophy was induced by incubation with TNFa at 40 ng/ml for 4 days. MeCbl (1 nM) and AdoCbl (1 nM) were incubated together with TNFa to test their effect on induced atrophy. IGF1 is used as a positive control at 15 nM to prevent muscle atrophy. After 4 days of treatment, cells were stained for nuclei and myosin heavy chain to quantify the proportion of nuclei inside myotubes (i.e fusion index).

[5] = tested on: hind-limb skeletal muscle; assay: Age-induced atrophy of skeletal muscle in pre-sarcopenic rats (hind-limb skeletal muscle mass); type: in vivo, rat; settings: pre-sarcopenic rats aged 16 months, 1 μg/kg s.c. 3 times per week for 5 months, versus saline controls; FIG. 3
Experimental: Pre-sarcopenic rats aged 16 months were treated for 5 months with either neuregulin-1 (NRG1; NRG1 beta EGF domain from Reprokine (catalog number RKQ02297)) or saline. NRG1 was injected sub-cutaneously at 1 μg/kg body weight 3 time per week. Hind-limb skeletal muscle mass was then evaluated and compared to a group of adult healthy rats (8 months at start of experiment) injected with saline control. […]

| Molecule | rescue of neuromuscular junctions (number and size) from stronger Ab-induced damage [1] | increase in muscle fiber size [2] | protection from Ab-induced damage (neuromuscular junction size, number and neurite network) [3] | protection from muscle atrophy (fusion index) [4] | hind-limb skeletal muscle mass [5] | protection of the neuromuscular system from Ab-induced damage (neuromuscular junction size) ([3]; NRG1 at a dose of 30 nM, FIG. 2) |
| --- | --- | --- | --- | --- | --- | --- |
| C/C1=C2/[N-][C@H]([C@H](CC(N)=O)[C@@]2(C)CCC(=O)NC[C@@H](C)OP(=O)([O-])O[C@H]2[C@@H](O)[C@@H](n3cnc4cc(C)c(C)cc43)O[C@@H]2CO)[C@]2(C)N=C(/C(C)=C3N=C(/C=C4N=C1[C@@H](CCC(N)=O)C\4(C)C)[C@@H](CCC(N)=O)[C@]\3(C)CC(N)=O)[C@@H](CCC(N)=O)[C@]2(C)CC(N)=O.[CH2-][C@H]1O[C@@H](n2cnc3c(N)ncnc32)[C@H](O)[C@@H]1O.[Co] [adenosylcobalamin, Adenosylcobalamin] | neither neuregulin-1 nor adenosylcobalamin alone could rescue the system | able to induce an increase in muscle fiber size | able to protect the system at both doses tested |  |  |  |
| C/C1=C2/[N-][C@H]([C@H](CC(N)=O)[C@@]2(C)CCC(=O)NC[C@H](C)OP(=O)([O-])O[C@H]2[C@@H](O)[C@@H](n3cnc4cc(C)c(C)cc43)O[C@@H]2CO)[C@]2(C)N=C(/C(C)=C3N=C(/C=C4N=C1[C@@H](CCC(N)=O)C\4(C)C)[C@@H](CCC(N)=O)[C@]\3(C)CC(N)=O)[C@@H](CCC(N)=O)[C@]2(C)CC(N)=O.[CH3-].[Co+3] [methylcobalamin, Methylcobalamin] |  | not methylcobalamin, was also able to induce an increase in muscle fiber size | not methylcobalamin, was also able to protect the system | able to protect from muscle atrophy |  |  |
| neuregulin-1: NRG1 beta EGF domain from Reprokine (catalog number RKQ02297); SEQ ID NO: 7 (protein, listed as Homo sapiens) SHLVKCAEKEKTFCVNGGECFMVKDLSNPSRYLCKCPNEFTGDRCQNYVMASFYKHLGIEF | neither neuregulin-1 nor adenosylcobalamin alone could rescue the system |  |  |  | significantly higher mass compared to controls | able to protect the neuromuscular system from damage |

Reference: patent publication US10758560B2, “Methods for treating sarcopenia and frailty” (NESTEC S.A., priority 2015, dated 2020)
